Measured values taken from patent US20140256660A1, “ANTIBIOTIC CONJUGATES LINKED WITH STEROID DRUGS” (Allergan, Inc., priority 2013, published 2014).

Tested on: human recombinant carboxylesterases
Assay: In vitro metabolic stability (rate of metabolite formation) in human recombinant carboxylesterases
Type: in vitro ADME
Settings: human recombinant carboxylesterases 0.1 mg/mL, 1 μM test compound, pH 6.0, 37° C.
Method: Dutch Belted rabbits were euthanized with an overdose of sodium pentobarbital. The corneas were collected and homogenized in ice-cold potassium chloride solution (pH=7.4). The homogenate was centrifuged at 755×g for 30 min at 4° C. and aliquots of the supernatant were stored at or below −70° C. until metabolism experiments were conducted. Prior to storing the homogenates an aliquot was removed for determination of protein concentrations by calculating the 260 nm absorbance using a spectrophotometer. Human recombinant carboxylesterases were purchased from a commercial vendor (BD Gentest™, Bedford, Mass.)
All metabolic stability experiments were performed in triplicate in 96-well plate format. The final incubation mixture contained 1 μM test compound, 0.3 mg/mL corneal protein homogenate or 0.1 mg/mL human recombinant carboxylesterase mixture in a final volume of 0.5 mL 0.1 M potassium phosphate buffer (pH=6.0). The final percentage of solvent in the incubation was less than 1.0% to prevent inhibition of enzymatic activity. Following a pre-incubation at 37° C., test article (i.e. ester linked hybrids) was added to initiate the reaction. At designated time points (typically less than 60 minutes to capture the linear range of metabolite formation), 0.05 mL aliquots were removed from the incubation mixtures using a clean pipet tip and immediately placed in organic solvent to stop any esterase activity.
Hydrolysis of the metabolites was confirmed to be due to esterase activity and not chemical lability. The samples were analyzed by liquid chromatography with mass spectrometry (LC-MS/MS) detection to determine the metabolite concentrations resulting from the metabolism of ester linked hybrids. Internal standards were used to compensate for variability from sample processing, chromatographic elution, mass spectrometer response and ion suppression by matrix components.

| Compound | Rate of formation Metabolite 1 (Betamethasone) (metabolite Betamethasone) | Rate of formation Metabolite 2 (Gatifloxacin) | Rate of formation Metabolite 1 (Dexamethasone) | Rate of formation Metabolite 1 (Prednisolone) (metabolite Prednisolone) |
| --- | --- | --- | --- | --- |
| COc1c(N2CCN(C(=O)OCOC(=O)CCC(=O)OCC(=O)[C@@]3(O)[C@@H](C)CC4C5CCC6=CC(=O)C=C[C@]6(C)[C@@]5(F)[C@@H](O)C[C@@]43C)C(C)C2)c(F)cc2c(=O)c(C(=O)O)cn(C3CC3)c12 (relative stereo) [Compound 2, rel-1-cyclopropyl-6-fluoro-7-[4-({[(4-{2-[(9R,10S,11S,13S,16S,17R)-9-fluoro-11,17-dihydroxy-10,13,16-trimethyl-3-oxo-6,7,8,9,10,11,12,13,14,15,16,17-dodecahydro-3H-cyclopenta[a]phenanthren-17-yl]-2-oxoethoxy}-4-oxobutanoyl)oxy]methoxy}carbonyl)-3-methylpiperazin-1-yl]-8-methoxy-4-oxo-1,4-dihydroquinoline-3-carboxylic acid] | 109 ± 2 nM/min/mg | 112 ± 4 nM/min/mg | – | – |
| COc1c(N2CCN(C(=O)OCOC(=O)CCC(=O)OCC(=O)[C@@]3(O)[C@H](C)CC4C5CCC6=CC(=O)C=C[C@]6(C)[C@@]5(F)[C@@H](O)C[C@@]43C)C(C)C2)c(F)cc2c(=O)c(C(=O)O)cn(C3CC3)c12 (relative stereo) [Compound 11, rel-1-cyclopropyl-6-fluoro-7-[4-({[(4-{2-[(9R,10S,11S,13S,16R,17R)-9-fluoro-11,17-dihydroxy-10,13,16-trimethyl-3-oxo-6,7,8,9,10,11,12,13,14,15,16,17-dodecahydro-3H-cyclopenta[a]phenanthren-17-yl]-2-oxoethoxy}-4-oxobutanoyl)oxy]methoxy}carbonyl)-3-methylpiperazin-1-yl]-8-methoxy-4-oxo-1,4-dihydroquinoline-3-carboxylic acid] | – | 56 ± 2.1 nM/min/mg | 44.5 ± 2.62 nM/min/mg | – |
| COc1c(N2CCNC(C)C2)c(F)cc2c(=O)c(C(=O)OCCCOC(=O)CCC(=O)OCC(=O)[C@]3(O)[C@@H](C)C[C@@H]4[C@H]5CCC6=CC(=O)C=C[C@@]6(C)[C@]5(F)[C@H](O)C[C@]43C)cn(C3CC3)c12 (relative stereo) [Compound 18, 3-({[1-cyclopropyl-6-fluoro-8-methoxy-7-(3-methylpiperazin-1-yl)-4-oxo-1,4-dihydroquinolin-3-yl]carbonyl}oxy)propyl 2-[(8R,9S,10R,11R,13R,14R,16S,17S)-9-fluoro-11,17-dihydroxy-10,13,16-trimethyl-3-oxo-6,7,8,9,10,11,12,13,14,15,16,17-dodecahydro-3H-cyclopenta[a]phenanthren-17-yl]-2-oxoethyl rel-butanedioate] | – | 2.44 ± 0.87 nM/min/mg | 59.7 ± 5.15 nM/min/mg | – |
| COc1c(N2CCN(C(=O)OCOC(=O)CCC(=O)N[C@@H](C(=O)OCC(=O)[C@]3(O)CCC4C5CCC6=CC(=O)C=C[C@@]6(C)C5[C@H](O)C[C@]43C)C(C)C)C(C)C2)c(F)cc2c(=O)c(C(=O)O)cn(C3CC3)c12 (relative stereo) [Compound 29, rel-1-cyclopropyl-7-{4-[(10R)-14-[(10S,11R,13R,17S)-11,17-dihydroxy-10,13-dimethyl-3-oxo-6,7,8,9,10,11,12,13,14,15,16,17-dodecahydro-3H-cyclopenta[a]phenanthren-17-yl]-5,8,11,14-tetraoxo-10-(propan-2-yl)-2,4,12-trioxa-9-azatetradecan-1-oyl]-3-methylpiperazin-1-yl}-6-fluoro-8-methoxy-4-oxo-1,4-dihydroquinoline-3-carboxylic acid] | – | 36.5 ± 1.1 nM/min/mg | – | 17.3 ± 0.1 nM/min/mg |
